Data on 31 compounds can be found in patent US6667335B2, “Imidazole derivatives” (Hoffmann-La Roche Inc., priority 2001, dated 2003).

One data set has as its target T1, NMDA-receptor subtype 2B (Rattus norvegicus, UniProt P35439+Q00960).
T1 construct: Membranes were prepared by homogenization of the whole brain minus cerebellum and medulla oblongata; from tissue; host or cells: rat whole brain minus cerebellum and medulla oblongata, membrane preparation
In words: 3H-Ro 25-6981 binding (displacement) on rat brain membranes. Conditions: displacement of 5 nM 3H-Ro 25-6981, rat whole brain membranes (minus cerebellum and medulla oblongata), 2 hours at 4° C. As for the experimental part:
^3H[R-(R*,S*)]-(α-(4-Hydroxy-phenyl)-β-methyl-4-(phenyl-methyl)-1-piperidine propanol)binding
Male Füllinsdorf albino rats weighing between 150-200 g were used. Membranes were prepared by homogenization of the whole brain minus cerebellum and medulla oblongata with a Polytron (10.000 rpm, 30 seconds), in 25 volumes of a cold Tris-HCl 50 mM, EDTA 10 mM, pH 7.1 buffer. The homogenate was centrifuged at 48,000 g for 10 minutes at 4° C. The pellet was resuspended using the Polytron in the same volume of buffer and the homogenate was incubated at 37° C. for 10 minutes. After centrifugation the pellet was homogenized in the same buffer and frozen at −80° C. for at least 16 hours but not more than 10 days. For the binding assay the homogenate was thawed at 37° C., centrifuged and the pellet was washed three times as above in a Tris-HCl 5 mM, pH 7.4 cold buffer. The final pellet was resuspended in the same buffer and used at a final concentration of […]. ^3H-Ro 25-6981 binding experiments were performed using a Tris-HCl 50 mM, pH 7.4 buffer. For displacement experiments 5 nM of ^3H-Ro 25-6981 were used and non specific binding was measured using 10 mM of tetrahydroisoquinoline and usually it accounts for 10% of the total. The incubation time was 2 hours at 4° C. and the assay was stopped by filtration on Whatmann GF/B glass fiber filters (Unifilter-96, Packard, Zürich, Switzerland). The filters were washed 5 times with cold buffer. The radioactivity on the filter was counted on a Packard Top-count microplate scintillation counter after addition of […] of microscint 40 (Canberra Packard S.A., Zuirich, Switzerland).
The effects of compounds were measured using a minimum of 8 concentrations and repeated at least once.

Counter-ions that a name gives are not always drawn.

T1 sequence (Q00960 27-1482, other chains not shown): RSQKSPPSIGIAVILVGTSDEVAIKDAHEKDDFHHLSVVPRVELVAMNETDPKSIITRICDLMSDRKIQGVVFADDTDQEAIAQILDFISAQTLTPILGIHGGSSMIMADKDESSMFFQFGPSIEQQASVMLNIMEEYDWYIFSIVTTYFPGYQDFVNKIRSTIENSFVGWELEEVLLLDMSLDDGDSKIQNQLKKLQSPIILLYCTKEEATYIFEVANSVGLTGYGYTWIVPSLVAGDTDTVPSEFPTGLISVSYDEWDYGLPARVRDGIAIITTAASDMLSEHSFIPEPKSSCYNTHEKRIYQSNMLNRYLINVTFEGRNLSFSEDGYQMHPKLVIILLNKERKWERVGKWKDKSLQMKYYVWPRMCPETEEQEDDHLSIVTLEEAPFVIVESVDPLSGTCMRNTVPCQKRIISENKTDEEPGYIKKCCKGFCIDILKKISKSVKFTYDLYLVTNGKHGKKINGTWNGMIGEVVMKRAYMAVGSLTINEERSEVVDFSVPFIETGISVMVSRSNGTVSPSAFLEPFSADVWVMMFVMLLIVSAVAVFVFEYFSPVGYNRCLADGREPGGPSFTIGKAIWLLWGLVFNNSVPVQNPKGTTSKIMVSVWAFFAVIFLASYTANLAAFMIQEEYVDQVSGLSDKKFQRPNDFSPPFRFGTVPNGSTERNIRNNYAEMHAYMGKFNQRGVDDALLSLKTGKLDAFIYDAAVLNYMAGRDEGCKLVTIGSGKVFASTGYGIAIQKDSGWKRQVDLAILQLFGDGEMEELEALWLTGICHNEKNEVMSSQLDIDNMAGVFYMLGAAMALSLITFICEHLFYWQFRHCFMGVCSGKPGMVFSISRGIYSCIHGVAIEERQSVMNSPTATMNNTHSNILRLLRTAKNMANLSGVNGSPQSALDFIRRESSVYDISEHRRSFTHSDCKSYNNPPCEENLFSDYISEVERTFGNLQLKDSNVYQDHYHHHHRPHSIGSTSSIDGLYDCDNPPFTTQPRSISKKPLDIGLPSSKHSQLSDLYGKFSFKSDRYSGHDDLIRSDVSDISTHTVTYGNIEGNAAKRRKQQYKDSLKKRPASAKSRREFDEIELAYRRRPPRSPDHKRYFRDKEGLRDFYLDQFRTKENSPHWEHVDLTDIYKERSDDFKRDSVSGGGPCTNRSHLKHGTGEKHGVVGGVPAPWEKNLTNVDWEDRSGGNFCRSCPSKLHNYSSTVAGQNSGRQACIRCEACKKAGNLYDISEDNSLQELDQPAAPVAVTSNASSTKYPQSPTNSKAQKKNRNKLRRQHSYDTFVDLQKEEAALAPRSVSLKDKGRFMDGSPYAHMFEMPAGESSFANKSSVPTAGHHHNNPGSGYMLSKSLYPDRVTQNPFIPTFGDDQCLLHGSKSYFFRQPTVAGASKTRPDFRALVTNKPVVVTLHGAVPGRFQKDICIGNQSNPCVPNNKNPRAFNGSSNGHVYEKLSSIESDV

`CCCc1nccn1Cc1cn(-c2ccc(Cl)c(Cl)c2)cn1.Cl.Cl` [Example 1, 1H-Imidazole, 1-[[1-(3,4-Dichlorophenyl)-1H-imidazol-4-yl]methyl]-2-propyl-, Hydrochloride (1:2)] registered a melting point of 241 to 243 °C. The same compound came in with an IC50 on NMDA-receptor subtype 2B of 7 nM.
For `Cc1nccn1Cc1cn(-c2ccc(Cl)c(Cl)c2)cn1.Cl.Cl` [Example 2, 1H-Imidazole, 1-[[1-(3,4-Dichlorophenyl)-1H-imidazol-4-yl]methyl]-2-methyl-, Hydrochloride (1:2)], in that order: over 250 °C and 10 nM.
For `CCc1nccn1Cc1cn(-c2ccc(Cl)c(Cl)c2)cn1.Cl.Cl` [Example 3, 1H-Imidazole, 1-[[1-(3,4-Dichlorophenyl)-1H-imidazol-4-yl]methyl]-2-ethyl-, Hydrochloride (1:2)], in that order: over 250 °C and 12 nM.
Taken in the same sequence, the figures for `CC(C)c1nccn1Cc1cn(-c2ccc(Cl)c(Cl)c2)cn1.Cl.Cl` [Example 4, 1H-Imidazole, 1-[[1-(3,4-Dichlorophenyl)-1H-imidazol-4-yl]methyl]-2-(1-methylethyl)-, Hydrochloride (1:2)] were 236 to 238 °C (dec.) and 17 nM.
`CCc1nccn1Cc1cn(-c2ccc(Cl)c(C)c2)cn1.Cl.Cl` [Example 10, 1H-Imidazole, 1-[[1-(4-Chloro-3-methylphenyl)-1H-imidazol-4-yl]methyl]-2-ethyl-, Hydrochloride (1:2)] came in with a melting point of 186 to 187 °C. The IC50 on NMDA-receptor subtype 2B was 4 nM.
For `Cc1cc(-n2cnc(Cn3ccnc3C)c2)ccc1Cl.Cl.Cl` [Example 11, 1H-Imidazole, 1-[[1-(4-Chloro-3-methylphenyl)-1H-imidazol-4-yl]methyl]-2-methyl-, Hydrochloride (1:2)], in that order: 218 to 220 °C and 5 nM.
Taken in the same sequence, the figures for `Cc1cc(-n2cnc(Cn3ccnc3)c2)ccc1Cl.Cl.Cl` [Example 12, 1H-Imidazole, 1-(4-Chloro-3-methylphenyl)-4-(1H-imidazol-1-yl-methyl)-, Hydrochloride (1:2)] were 206 to 207 °C and 8 nM.
In the case of `Cc1cc(-n2cnc(Cn3cnc(C)c3C)c2)ccc1Cl.Cl.Cl` [Example 13, 1H-Imidazole, 1-[[1-(4-Chloro-3-methylphenyl)-1H-imidazol-4-yl]methyl]-4,5-dimethyl-, Hydrochloride (1:2)], the melting point is over 250 °C. At NMDA-receptor subtype 2B, the IC50 was found to be 95 nM.
Taken in the same sequence, the figures for `Cc1nccn1Cc1cn(-c2ccc3c(c2)CCC3)cn1.Cl.Cl` [Example 16, 1H-Imidazole, 1-[[1-(2,3-Dihydro-1H-inden-5-yl)-1H-imidazol-4-yl]methyl]-2-methyl-, Hydrochloride (1:2)] were 242 to 243 °C and 9 nM.
For `CCc1nccn1Cc1cn(-c2ccc3c(c2)CCC3)cn1.Cl.Cl` [Example 17, 1H-Imidazole, 1-[[1-(2,3-Dihydro-1H-inden-5-yl)-1H-imidazol-4-yl]methyl]-2-ethyl-, Hydrochloride (1:2)], in that order: 240 to 241 °C and 12 nM.
For `Cc1cc(-n2cnc(Cn3ccnc3C)c2)ccc1F.Cl.Cl` [Example 24, 1H-Imidazole, 1-[[1-(4-Fluoro-3-methylphenyl)-1H-imidazol-4-yl]methyl]-2-methyl-, Hydrochloride (1:2)], in that order: 210 to 212 °C and 16 nM.
For `Cc1ccc(-n2cnc(Cn3ccnc3C)c2)cc1C(F)(F)F.Cl.Cl` [Example 39, 1H-Imidazole, 2-Methyl-1-[[1-[4-methyl-3-(trifluoromethyl)phenyl]-1H-imidazol-4-yl]methyl]-, Hydrochloride (1:2)], the melting point was > 235 °C (dec.). The concentration for half-maximal inhibition (IC50) at NMDA-receptor subtype 2B was determined as 43 nM.
`Cc1nccn1Cc1cn(-c2ccc(Cl)cc2)cn1.Cl.Cl` [Example 48, 1H-Imidazole, 1-[[1-(4-Chlorophenyl)-1H-imidazol-4-yl]methyl]-2-methyl-, Hydrochloride (1:2)]: the melting point lay within 243 to 244 °C. Further, the IC50 at NMDA-receptor subtype 2B worked out at 61 nM.
For `Cc1nccn1Cc1cn(-c2ccc3c(c2)OCO3)cn1.Cl.Cl` [Example 52, 1H-Imidazole, 1-[[1-(1,3-Benzodioxol-5-yl)-1H-imidazol-4-yl]methyl]-2-methyl-, Hydrochloride (1:2)], in that order: over 250 °C and 78 nM.
For `CCc1nccn1Cc1cn(-c2ccc(OC)c(Cl)c2)cn1.Cl.Cl` [Example 58, 1H-Imidazole, 1-[[1-(3-Chloro-4-methoxyphenyl)-1H-imidazol-4-yl]methyl]-2-ethyl-, Hydrochloride (1:2)], in that order: 220 to 221 °C and 93 nM.
Taken in the same sequence, the figures for `Cc1ccc(-n2cnc(Cn3ccnc3C)c2)cc1Cl.Cl.Cl` [Example 87, 1H-Imidazole, 1-[[1-(3-Chloro-4-methylphenyl)-1H-imidazol-4-yl]methyl]-2-methyl-, Hydrochloride (1:2)] were 242 to 243 °C and 17 nM.
Regarding `Cc1ccc(-n2cnc(Cn3ccnc3)c2)cc1Cl.Cl.Cl` [Example 89, 1H-Imidazole, 1-(3-Chloro-4-methylphenyl)-4-(1H-imidazol-1-yl-methyl)-, Hydrochloride (1:2)], the melting point lay within 218 to 220 °C. At NMDA-receptor subtype 2B, this compound gave an IC50 of 48 nM.
Taken in the same sequence, the figures for `Cc1nccn1Cc1cn(-c2ccc(F)c(Cl)c2)cn1.Cl.Cl` [Example 93, 1H-Imidazole, 1-[[1-(3-Chloro-4-fluorophenyl)-1H-imidazol-4-yl]methyl]-2-methyl-, Hydrochloride (1:2)] were 224 to 225 °C and 20 nM.
`CCc1nccn1Cc1cn(-c2ccc(F)c(Cl)c2)cn1.Cl.Cl` [Example 94, 1H-Imidazole, 1-[[1-(3-Chloro-4-fluorophenyl)-1H-imidazol-4-yl]methyl]-2-ethyl-, Hydrochloride (1:2)]: the melting point was in the range of 248 to 250 °C. Also, the IC50 at NMDA-receptor subtype 2B turned out to be 21 nM.
Take `CCc1nccn1Cc1cn(-c2cccc(C(C)C)c2)cn1` [Example 153]: the IC50 at NMDA-receptor subtype 2B came out at 20 nM.
On the same count and under the same terms, under `Cc1nccn1Cc1cn(-c2ccc3ccccc3c2)cn1` [Example 155, 1H-Imidazole, 2-Methyl-1-[[1-(naphtalen-2-yl)-1H-imidazol-4-yl]methyl]-, Hydrochloride (1:2)] stands 10 nM; under `CCc1nccn1Cc1cn(-c2ccc(F)c(C(F)F)c2)cn1` [Example 164, 1H-Imidazole, 1-[[1-(3-Difluoromethyl-4-fluorophenyl)-1H-imidazol-4-yl]methyl]-2-ethyl-, Hydrochloride (1:2)], 30 nM; under `CSc1cccc(-n2cnc(Cn3ccnc3)c2)c1` [Example 168, 4-Imidazol-1-ylmethyl-1-(3-methylsulfanyl-phenyl)-1H-imidazole Hydrochloride (1:2)], 38 nM.
The same measure, in the same setting: under `Cc1nccn1Cc1cn(-c2cccc(Cl)c2)cn1` [Example 173] stands 28 nM; under `CCc1nccn1Cc1cn(-c2cc(OC)cc(C(F)(F)F)c2)cn1` [Example 181], 53 nM.
Same read-out and setting: under `Cc1nccn1Cc1cncc(-c2ccc(F)c(C(F)F)c2)c1` [Example 225, 3-(3-Difluoromethyl-4-fluoro-phenyl)-5-(2-methyl-imidazol-1-ylmethyl)-pyridine] stands 10 nM; under `Cc1nccn1Cc1cncc(-c2cccc(C(C)(F)F)c2)c1` [Example 226, 3-[3-(1,1-Difluoro-ethyl)-phenyl]-5-(2-methyl-imidazol-1-ylmethyl)-pyridine], 20 nM.
Take `Cc1nccn1Cc1cncc(-c2cc(F)cc(C(F)(F)F)c2)c1` [Example 227, 3-(3-Fluoro-5-trifluoromethyl-phenyl)-5-(2-methyl-imidazol-1-ylmethyl)-pyridine]: the IC50 at NMDA-receptor subtype 2B was determined as 30 nM.
Still for that read-out and setting: under `Clc1ccc(-n2cnc(Cn3ccnc3C3CC3)c2)cc1Cl` [Example 229, 1H-Imidazole, 2-Cyclopropyl-1-[[1-(3,4-dichlorophenyl)-1H-imidazol-4-yl]methyl]-,] stands 12 nM; under `Cc1cc(-c2cnc(Cn3ccnc3C)n2C)ccc1F` [Example 230, 5-(4-Fluoro-3-methyl-phenyl)-1-methyl-2-(2-methyl-imidazol-1-ylmethyl)-1-H-imidazole Hydrochloride (1:1)], 84 nM; under `Cc1cc(-c2cnc(Cn3ccnc3C)n2C)ccc1Cl` [Example 232, 5-(4-Chloro-3-methyl-phenyl)-1-methyl-2-(2-methyl-imidazol-1-ylmethyl)-1-H-imidazole-hydrochloride Hydrochloride (1:1)], 40 nM.

For orientation: IC50 means the concentration needed to halve the response being measured. In general, melting point refers to the temperature, or range, at which the solid turns liquid.
